Measurements from patent US5331094A, “Purified active somatostatin receptor” (American Cyanamid Company, priority 1992, dated 1994).
Bridge positions count the residues as written; N and C are the ends. Square brackets hold non-standard residues; d marks the D form. Peptide text beside a SMILES is read from it. * marks the point of attachment. Biotin = O=C1N[C@H]2[C@H](CS[C@H]2CCCCC(=O)*)N1; Tyr(3-I) = N[C@@H](Cc1ccc(O)c(I)c1)C(=O)O; Ahx = NCCCCCC(=O)O

Legend:
Design in all cases: species or system rat
[1] = target: SRIF receptor; test: Competitive radioligand binding assay with [125I]Tyr11-S14 and GH4 C1 membranes; conditions: for IC50: vs [125I]Tyr11-S14, 20 ug GH4 C1 membrane protein, 100,000 cpm radioligand (FIG. 1B)
Description: (§1) 1. Standard Binding Assays--Binding assays are done in a binding buffer containing 50 mM HEPES (pH 7.4), 0.5% BSA and 5 mM MgCl2. The standard assay for [^125 I]SRIF analog binding to GH4 C1 membranes, done in 96 well microtiter plates (Dynataech Immulon II Removawell plates), is carried out as follows: 1. Radioligand is diluted in binding buffer+ PMSF/Baci to the desired cpm per vol. of 50 μl and then 50 μl aliquots are added to the wells. For non-specific binding samples, 5 μl of 40 μM cold S14 is also added per well. 2. Binding is initiated by adding 150 μl per well of membrane diluted to the desired concentration (10-30 ug membrane protein/well) in binding buffer+ PMSF/Baci. Plates are then covered with Linbro mylar plate sealers (Flow Labs) and placed on a Dynatech Microshaker II and binding is allowed to proceed at room temperature for 1-2 hours. Binding is stopped by centrifuging the plate for 15 minutes at 2,000×g. The supernatants are dumped off and membrane pellets washed once by addition of 200 μl of ice cold binding buffer, brief shaking and recentrifugation. Finally the individual wells are placed in 12×75 mm tubes and counted in an LKB Gammamaster counter (78% efficiency). Specific binding by this method is identical to that measured when free ligand is removed by rapid (3-5 seconds) filtration and washing on polyethyleneimine-coated glass fiber filters.
2. competitive radioligand binding assays with a concentration range of cold ligand vs. [^125 I]SRIF are carried out as described above with one modification. All dilutions of SRIF analogs being assayed are made in 40×PMSF/Baci to a concentration 40× the final concentration in the assay. This gives very consistent results with a wide variety of SRIF structural analogs over a wide range of dilutions. 5 ul samples of peptide are then added per microtiter well. Membranes and radioligand are diluted out in binding buffer without protease inhibitors. Radioligand is added and mixed with cold peptides and then binding is initiated by addition of membranes.
These assays are carried out as described in "Methods: Receptor Binding Methods, 2". […] Therefore the Bio-6C-S14, Bio-12C-S14 and Bio-S28analogs are preferably synthesized. In Bio-S28, amino acid residues 1-14 are considered a spacer since residues 15-28 are equivalent to an S14 analog, having all the necessary structure for high affinity binding. The three spacer-containing biotinyl SRIFs show receptor binding activity similar to that of S14 (FIG. 1B; assays contained 20 ug of GH 4 C1 membrane protein and 100,000 cpm of radioligand). The IC50 s and relative potencies are S14 (0.2 nM)>Bio-S28(0.3 nM) >Bio-6C-S14 (2 nM)>Bio-12C-S14 (2 nM).

[2] = target: SRIF receptor; test: Scatchard analysis of binding of [125I]-labelled SRIF analogs to GH4 C1 membranes; conditions: GH4 C1 membranes (FIG. 2), read-out: dissociation constant (KD)
Description: as §1
Because Bio-C6-S14, Bio-C12-S14 and Bio-S28 all contain tyrosine residues, it is possible to prepare their [^125 I] labelled analogs and carry out Scatchard analyses of their binding affinities relative to [^125 I]Tyr11-S14 (FIG. 2). As shown in the figure, the [^125 I]-labelled peptides fall in the same order of potency as their non-labelled forms. The dissociation constants (KDs) and relative binding affinities are [^125 I]Tyr11-S14 (0.1 nM)>[^125 I]Bio-S28 (0.2 nM)>[^125I]Bio-6C-S14 (0.3 nM)>[^125 I]Bio-12C-S14 (0.4 nM).

[3] = test system: SRIF receptor; test: Lectin affinity binding (WGA-agarose) of solubilized receptor:[125I]Tyr11-S14 complex; conditions: for A/B, GFB/PEI filters: Recovery of soluble R:L complex
Description: 4. Larger scale binding assays to obtain membrane pellets for studies on solubilization of receptor: ligand complex and for receptor purification are also carried out. These are identical to the standard assays except that: (a) Binding is carried out in polypropylene tubes in volumes from 1-250 ml, (b) Concentration of membrane protein is always 0.5 mg/ml, (c) For receptor purification, BSA concentration in the binding buffer is reduced to 0.25% and the wash step is done with binding buffer without BSA. This is to reduce BSA contamination of the purified receptor.
H. Assay of Solubilized Receptors--After binding of [^125 I]SRIF analogs and solubilization of the membranes with detergent, the intact R:L complex could be assayed by four different methods (all carried out on ice or in a cold room at 4°-10° C.): (1) Column chromatography (Knuhtsen et al., Biochem. J. 254:641-647, 1988). Sephadex G-50 columns (8×250 mm) are equilibrated with solubilization buffer containing detergent at the concentration used to solubilize membranes and 1 mg/ml bovine serum albumin. 0.2-0.5 ml samples of solubilized membranes are applied to the columns and eluted at a flow rate of about 0.7 ml/minute. 0.18 ml samples are collected. Radioactivity is determined in a gamma counter as described under "Receptor Binding Methods". Void volumes of the columns are determined by the elution volume of blue dextran. Radioactivity eluting in the void volume (>50,000 MW) was considered bound to protein. Radioactivity eluting later, at the same volume as free [^125 I]SRIF, is considered non-bound. (2) Polyethyleneglycol precipitation (Cuatrecasas, PNAS USA 69:318-322, 1972) For a 100 ul sample of solubilized membranes in a 12×75 mm polypropylene tube, 0.5 ml of 1% (w/v) bovine gamma globulin (Sigma) in 0.1M sodium phosphate buffer is added, followed by 0.5 ml of 25% (w/v) polyethyleneglycol (Sigma) and mixing. The mixture is held on ice for 15 minutes. Then 3 ml of 0.1M sodium phosphate (pH 7.4) is added per sample and the samples are rapidly (1-3 seconds) filtered over Whatman GF/B glass fiber filters and washed with 4 ml of the phosphate buffer. PEG precipitated SRIF receptor:[^125 I]SRIF complex is determined by gamma counting of the filters. (3) GFB/PEI filter binding (Bruns et al., Analytical Biochem. 132:74-81, 1983). Whatman GF/B glass fiber filters are soaked in 0.3% polyethyleneimine (PEI, Sigma) for 3 hours. 25-100 ul samples of solubilized membranes are replaced in 12×75 mm polypropylene tubes. Then 4 ml of solubilization buffer (without detergent) is added per sample and the samples are immediately filtered through the GFB/PEI filters (1-3 seconds) and washed with 4 ml of solubilization buffer. CPM of SRIF receptor:[^125 I]SRIF complex adsorbed to filters are determined by gamma counting. (4) Charcoal/Dextran (Paul and Said, Peptides 7[Suppl. 1]:147-149, 1986). 0.5 gm of Dextran T70 (Pharmacia) is dissolved in 1 liter of water and then 5 gm of activated charcoal (Norit A, alkaline; Fisher Scientific) is added. The suspension is stirred for 10 minutes at room temperature and then stored at 4° C. until use. To measure R:L complex, 4 parts by volume of charcoal/dextran suspension are added to 1 part by volume of solubilized membrane. The samples are mixed and held on ice for 2 minutes and then centrifuged for 2 minutes at 11,000×g in a Beckman microfuge. Free radioligand is adsorbed charcoal/dextran and is discarded with the pellet. SRIF receptor:[^125 I]SRIF complex remain in the supernatant and is determined by gamma counting.
A. Solubilized Receptor: [^125 I]Tyr11-S14 Complex-Binding of [^125 I][…] to GH4 C1 membranes is carried out as in "Receptor Binding Methods. 4". Binding incubations contain 0.5 mg/ml membrane protein and 6×10^6 cpm/ml of [^125 I]Tyr11-S14. Solubilization of membranes in 0.15% deoxycholate:lysolecithin is also as previous described. […]

[4] = Sample: 100,000 x g supernatant
[5] = Sample: Eluted from WGA-agarose
[6] = Sample: Non-bound to WGA-agarose

## C[C@H](NC(=O)CCCCCNC(=O)CCCC[C@@H]1SC[C@@H]2NC(=O)N[C@@H]21)C(=O)NCC(=O)N[C@H]1CSSC[C@@H](C(=O)O)NC(=O)[C@H](CO)NC(=O)[C@H]([C@@H](C)O)NC(=O)[C@H](Cc2ccc(O)cc2)NC(=O)[C@H]([C@@H](C)O)NC(=O)[C@H](CCCCN)NC(=O)[C@H](Cc2c[nH]c3ccccc23)NC(=O)[C@H](Cc2ccccc2)NC(=O)[C@H](Cc2ccccc2)NC(=O)[C@H](CC(N)=O)NC(=O)[C@H](CCCCN)NC1=O [Bio-6C-S14, Biotinyl-[NH--(CH2)5 --CO]--NH-(Tyr11)SRIF14] ({Biotin-Ahx}-AGCKNFFWKTYTSC-OH; disulfide 3-14)
[1]
  IC50: 2000 pM

## C[C@H](NC(=O)CCCCCNC(=O)CCCCCNC(=O)CCCC[C@@H]1SC[C@@H]2NC(=O)N[C@@H]21)C(=O)NCC(=O)N[C@H]1CSSC[C@@H](C(=O)O)NC(=O)[C@H](CO)NC(=O)[C@H]([C@@H](C)O)NC(=O)[C@H](Cc2ccc(O)cc2)NC(=O)[C@H]([C@@H](C)O)NC(=O)[C@H](CCCCN)NC(=O)[C@H](Cc2c[nH]c3ccccc23)NC(=O)[C@H](Cc2ccccc2)NC(=O)[C@H](Cc2ccccc2)NC(=O)[C@H](CC(N)=O)NC(=O)[C@H](CCCCN)NC1=O [Bio-12C-S14, Biotinyl-[NH-(CH2)5 -CO]2 -NH-(Tyr11)SRIF14] ({Biotin-Ahx-Ahx}-AGCKNFFWKTYTSC-OH; disulfide 3-14 (inferred); C-terminus assumed)
[1]
  IC50: 2000 pM

## CC(C)C[C@H](NC(=O)[C@H](C)NC(=O)[C@@H]1CCCN1C(=O)[C@H](CC(N)=O)NC(=O)[C@H](CO)NC(=O)[C@H](CC(N)=O)NC(=O)[C@H](C)NC(=O)[C@H](CO)NC(=O)CCCC[C@@H]1SC[C@@H]2NC(=O)N[C@@H]21)C(=O)N[C@@H](C)C(=O)N1CCC[C@H]1C(=O)N[C@@H](CCCNC(=N)N)C(=O)N[C@@H](CCC(=O)O)C(=O)N[C@@H](CCCNC(=N)N)C(=O)N[C@@H](CCCCN)C(=O)N[C@@H](C)C(=O)NCC(=O)N[C@H]1CSSC[C@@H](C(=O)O)NC(=O)[C@H](CO)NC(=O)[C@H]([C@@H](C)O)NC(=O)[C@H](Cc2ccc(O)cc2)NC(=O)[C@H]([C@@H](C)O)NC(=O)[C@H](CCCCN)NC(=O)[C@@H](Cc2c[nH]c3ccccc23)NC(=O)[C@H](Cc2ccccc2)NC(=O)[C@H](Cc2ccccc2)NC(=O)[C@H](CC(N)=O)NC(=O)[C@H](CCCCN)NC1=O [Bio-S28, Biotinyl-NH-(Leu8, D-Trp22, Tyr25)SRIF28] (Biotin-SANSNPALAPRERKAGCKNFF[dW]KTYTSC-OH; disulfide 17-28 (inferred); C-terminus assumed)
[1]
  IC50: 300 pM

## C[C@H](N)C(=O)NCC(=O)N[C@H]1CSSC[C@@H](C(=O)O)NC(=O)[C@H](CO)NC(=O)[C@H]([C@@H](C)O)NC(=O)[C@H](Cc2ccccc2)NC(=O)[C@H]([C@@H](C)O)NC(=O)[C@H](CCCCN)NC(=O)[C@H](Cc2c[nH]c3ccccc23)NC(=O)[C@H](Cc2ccccc2)NC(=O)[C@H](Cc2ccccc2)NC(=O)[C@H](CC(N)=O)NC(=O)[C@H](CCCCN)NC1=O [S14, reference compound]
[1]
  IC50: 200 pM

## C[C@H](N)C(=O)NCC(=O)N[C@H]1CSSC[C@@H](C(=O)O)NC(=O)[C@H](CO)NC(=O)[C@H]([C@@H](C)O)NC(=O)[C@H](Cc2ccc(O)c(I)c2)NC(=O)[C@H]([C@@H](C)O)NC(=O)[C@H](CCCCN)NC(=O)[C@H](Cc2c[nH]c3ccccc23)NC(=O)[C@H](Cc2ccccc2)NC(=O)[C@H](Cc2ccccc2)NC(=O)[C@H](CC(N)=O)NC(=O)[C@H](CCCCN)NC1=O [[^125 I]Tyr11-S14] (H-AGCKNFFWKT[Tyr(3-I)]TSC-OH; disulfide 3-14 (inferred); N-terminus and C-terminus assumed)
[2]
  Kd: 100 pM
[3]; 100,000 x g supernatant
  A/B, GFB/PEI filters: 11.3
[3]; Eluted from WGA-agarose
  A/B, GFB/PEI filters: 33.7
[3]; Non-bound to WGA-agarose
  A/B, GFB/PEI filters: 2.9
[3]; [4]
  A/B (total/non-specific): 8.2
  CPM of [125I]Tyr11-S14, A. Total: 104,420 CPM
  CPM of [125I]Tyr11-S14, B. Non-Specific: 12,756 CPM
[3]; Sample: Bound to WGA-agarose
  A/B (total/non-specific): 22.1
  CPM of [125I]Tyr11-S14, A. Total: 69,889 CPM
  CPM of [125I]Tyr11-S14, B. Non-Specific: 3,157 CPM
[3]; [5]
  A/B (total/non-specific): 23.0
  CPM of [125I]Tyr11-S14, A. Total: 58,925 CPM
  CPM of [125I]Tyr11-S14, B. Non-Specific: 2,524 CPM
[3]; Sample: Membranes
  A/B (total/non-specific): 5.3
  CPM of [125I]Tyr11-S14, A. Total: 151,848 CPM
  CPM of [125I]Tyr11-S14, B. Non-Specific: 28,812 CPM
[3]; [6]
  A/B (total/non-specific): 2.4
  CPM of [125I]Tyr11-S14, A. Total: 23,112 CPM
  CPM of [125I]Tyr11-S14, B. Non-Specific: 9,624 CPM

## Biotinyl-NH-SRIF14 [Biotinyl-NH-S14]
[1]; FIG. 1A, 40 ug GH4 C1 membrane protein, 85,000 cpm radioligand
  potency relative to S14 in the competitive binding assay: about 1.5%
